Common to all, as to type: in vivo
One test concerns p38-MAPK. Kind of test: p38-MAPK activation in CSF-1 mutant op−/− mice (Pathscan-Phospho-p38α-ELISA). The note with it: 5 mg/kg i.v. preoperative, 20 minutes after IM, mean±SEM. The text has this:
Male C57BL/6J mice ([…] bodyweight) were obtained from Harlan-Winkelmann (Borchen, Germany). CSF-1 mutant op−/− mice (strain B6C3Fe a/a-Csf1op) and populations of unknown heterozygous or wildtype genotype (op+/?) of mixed gender were used at an age of 6 weeks and bred as described before (Wehner S, Behrendt F F, Lyutenski B N et al. Inhibition of macrophage function prevents intestinal inflammation and postoperative ileus in rodents. Gut 2007; 56:176-185). op−/− mice were phenotyped by the absence of incisors at day P10. All experiments were performed in accordance with the federal law regarding the protection of animals. The principles of laboratory animal care were followed. Animals were maintained on a 12-hour light/dark cycle and provided with commercially available rodent chow and tap water ad libitum.
p38-MAPK phosphorylation was evaluated in unoperated homozygous colony stimulating factor-1 mutant mice (op−/−) mice, or in op−/− and op+/? mice (a mixed population of unknown heterozygous +/− or homozygous +/+ wildtype mice) 20 minutes after IM. […] Additionally, CNI-1493 (5 mg/kg) pretreated op−/− mice were analyzed. In this experiment, p38-MAPK phosphorylation was quantified by the Pathscan-Phospho-p38α-ELISA following manufacturer's instructions. Phospho-p38 content of each probe was determined in duplicate from lysates with 6.25 μg total protein content.

The test system of test [1] is nitric oxide (NO) production in ME. Put plainly: Nitric oxide release from rat ME cultures (Griess reaction) after IM. The conditions noted are these: rats. The protocol:
Animals underwent IM after intravenous CNI-1493 (5 mg/kg) or oral CPSI-2364 (1 mg/kg or 0.1 mg/kg) administration 90 minutes before surgery. Control animals received CNI-1493 (5 mg/kg) intravenously or CPSI-2364 orally (1 mg/kg or 0.1 mg/kg), but were not operated.
Total ME from small intestine was isolated 24 h after operation as described above and then cut into small pieces and washed for 30 minutes in PBS containing a penicillin/streptomycin (200U/200 μg) mixture. Aliquots of ˜50 mg were incubated in 1 mL of DMEM at 37° C. and 5% CO2 for further 24 hours and tissue culture supernatants were frozen in liquid nitrogen. The muscle tissue was blotted dry, and the exact weight was measured. To quantify the generation of NO from intestinal smooth muscle preparations, nitrite production was measured by the Griess reaction as described previously (Kalff J C, Schraut W H, Billiar T R et al. Role of inducible nitric oxide synthase in postoperative intestinal smooth muscle dysfunction in rodents. Gastroenterology 2000; 118:316-327). In brief, supernatant from the tissue culture was mixed with an equal volume of Griess reagent (0.1% N-(1-napthyl)ethyl-enediamine dihydrochloride and 1% sulfanilamide in 6% phosphoric acid; 1:1) and incubated for 10 minutes. The absorbance at 550 nm was measured with a microplate reader and compared with standard dilutions of sodium nitrite. […]
(The Griess reaction detects nitrite, a stable product of nitric oxide.)

Another test deals with swine. Put plainly: Gastrointestinal transit in swine (radio-opaque globes, geometric center) after IM. The conditions noted are these: 24 h after operation, mean+/−SEM. The protocol:
Swine were fed with CPSI 2364 or placebo 14 hours and three hours before operation. In the iv group, CPSI 2364 was applied once two hours before operation. All animals were fed (non fasted). After premedication animals were intubated and a central venous catheter was applied. A laparotomy was performed under sterile conditions. The whole small bowel was eventrated and manipulated twice from duodenum to cecum between two fingers. In the sham group, a laparotomy was performed without intestinal manipulation. At the end of the operation, 15 radio-opaque globes were placed in the proximal small bowel. The abdominal wall was closed and swine were brought to an intensive care unit.
Swine underwent intestinal manipulation (IM) or laparotomy without IM (Sham). CPSI-2364 (1 mg/kg) or placebo (mannitol 2.5%) were administered orally (p.o.) twice at 14 hours and 3 hours before operation or intravenously (i.v.) once at 2 hours before operation. At the end of the operation, 15 radio-opaque globes were placed in the proximal small bowel. Twenty-four hours after operation animals were sacrificed and the radio-opaque globes were detected by x-rays radiography and the distribution along the gastrointestinal tract was calculated as the geometric center **p<0.001 vs. indicated probes by 1-way ANOVA followed by Bonferroni's post test. […]

Consider `C/C(=N\N=C(N)N)c1cc(NC(=O)CCCCCCCCC(=O)Nc2cc(/C(C)=N/N=C(N)N)cc(/C(C)=N/N=C(N)N)c2)cc(/C(C)=N/N=C(N)N)c1.Cl.Cl.Cl.Cl` [CNI-1493], for which the “p38-MAPK phosphorylation levels (phospho-p38 ELISA)” value in the test with p38-MAPK came out at 3.24±0.66.
As for `C/C(=N\N=C(N)N)c1cc(NC(=O)CCCCCCCCC(=O)Nc2cc(/C(C)=N/N=C(N)N)cc(/C(C)=N/N=C(N)N)c2)cc(/C(C)=N/N=C(N)N)c1.CS(=O)(=O)O.CS(=O)(=O)O.CS(=O)(=O)O.CS(=O)(=O)O` [CPSI-2364], the “NO production from ME vs placebo IM” value in test [1] (0.1 mg/kg bodyweight p.o.) is given as “led to the described results”; in test [1] (p.o. preoperative (FIG. 12)), “significantly diminished”. Besides, the “gastrointestinal transit, geometric center (GC)” value with swine (1 mg/kg i.v. once at 2 hours before operation) is reported as 14.01+/−0.44; with swine (1 mg/kg p.o. twice at 14 hours and 3 hours before operation), 13.00+/−0.27.
